Assay results taken from publication PMC5569017, “Development of a novel immunoassay to detect interactions with the transactivation domain of p53: application to screening of new drugs” (Scientific Reports, 2017).
Where two headings read alike, the source gives them in different places.

Columns and labels:
[1] = target: T1, p53-MDM2 interaction (Homo sapiens, UniProt Q00987); experiment: AlphaLISA inhibitor screening assay, p53-MDM2 (cellular extracts with p53-His and MDM2-GST); type: biochemical; conditions: 33.3 μg/well MDM2-GST extract, Fig. 4; for concentration above which the AlphaLISA signal reached a plateau: dose-response, 1:10 serial dilutions
T1 construct: made in house; host or cells: MDM2-GST: Escherichia coli BL21 (DE3), crude extract; p53-His: HEK293T cells transfected with pEnter-p53, crude lysate

[2] = tested on: p53/MDM2 interaction; conditions: cited from earlier work
[3] = target: MDM2; design: method as in PMID 27764791; conditions: read-out: Ki, MDM2 antagonist; cited from earlier work

T1 sequence (Q00987 whole entry): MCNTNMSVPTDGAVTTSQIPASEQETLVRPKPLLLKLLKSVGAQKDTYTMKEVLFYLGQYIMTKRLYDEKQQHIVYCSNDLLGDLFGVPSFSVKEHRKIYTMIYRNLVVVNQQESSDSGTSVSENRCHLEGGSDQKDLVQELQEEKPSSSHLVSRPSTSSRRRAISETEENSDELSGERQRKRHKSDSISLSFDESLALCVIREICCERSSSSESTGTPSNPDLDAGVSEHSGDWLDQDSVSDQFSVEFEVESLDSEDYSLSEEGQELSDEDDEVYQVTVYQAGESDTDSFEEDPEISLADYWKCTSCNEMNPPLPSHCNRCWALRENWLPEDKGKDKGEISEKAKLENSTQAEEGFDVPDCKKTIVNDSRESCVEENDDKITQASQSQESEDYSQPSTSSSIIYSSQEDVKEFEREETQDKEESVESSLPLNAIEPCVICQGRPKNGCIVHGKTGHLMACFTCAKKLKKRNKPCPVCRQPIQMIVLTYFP

**Q.** Which “course of AlphaLISA response signal with increasing inhibitor dose” value ([1]; serial dilutions starting with 20 μM) does the source give for `COc1cc(C(=O)O)ccc1NC(=O)[C@@H]1N[C@@H](CC(C)(C)C)[C@](C#N)(c2ccc(Cl)cc2F)[C@H]1c1cccc(Cl)c1F` [Idasanutlin] here?
**A.** The value was “continued to rise rapidly”.

**Q.** What about the IC50 ([2]; read-out: IC50, p53-MDM2 inhibitor) of the same compound?
**A.** Its IC50 is 6 nM.

**Q.** For `CC(C)(C)C[C@@H]1N[C@@H](C(=O)N[C@H]2CC[C@H](O)CC2)[C@H](c2cccc(Cl)c2F)[C@]12C(=O)Nc1cc(Cl)ccc12` [MI-773], which “concentration above which the AlphaLISA signal reached a plateau” value [1] is on record?
**A.** Its value is “exceeded 1 μΜ”.

**Q.** What about the Ki [3] of the same compound?
**A.** Its Ki is 0.88 nM.

**Q.** With `CCOc1cc(C(C)(C)C)ccc1C1=N[C@@](C)(c2ccc(Cl)cc2)[C@@](C)(c2ccc(Cl)cc2)N1C(=O)N1CCN(CCCS(C)(=O)=O)CC1` [RG-7112] as the compound, how does the “concentration above which the AlphaLISA signal reached a plateau” value [1] read?
**A.** The value was “exceeded 1 μΜ”.
